Measured values reported in patent EP0308279A1, “Water-soluble polysaccharides, process for obtaining them, their use as medicaments and a preparation containing them” (LIPHA, LYONNAISE INDUSTRIELLE PHARMACEUTIQUE, priority 1987, dated 1989).

Test system: macrophages alvéolaires de rats Kyoto
Test: Activation of alveolar macrophages (cytostatic/cytotoxic activity towards tumour target cells, tritiated thymidine incorporation)
Format: cell-based, rat
Settings: mean of 3 measurements
Method: Ce test met en évidence le phénomène d'activation des macrophages par une mesure de leur activité cytostatique ou cytotoxique envers des cellules de lignée tumorale.
Le test de mesure de l'activation des macrophages consiste à traiter une culture de macrophages alvéolaires ou péritonéaux de rat ou de souris ou de monocytes humaines par des doses des polysaccharides de l'invention variant entre 0,001 et 50 µg/ml. Il est réalisé de la manière suivante :
10⁵ macrophages de souris de souche Balb c, Swiss, C57/B16 ou DBA/2 ou de rat de souche Kyoto ou Wistar sont placés dans une plaque de microtitration dans du milieu de culture complété ou non par du sérum artificiel et de 1 à 10 µg/ml de polymyxine.
On ajoute les polysaccharides de l'invention ou le tampon correspondant sans polysaccharides comme contrôle négatif. Les cellules sont incubées 24 heures à 37°C. On élimine ensuite le surnageant et lave les cellules avec du milieu de culture.
On ajoute alors les cellules cibles tumorales L1210 ou P815 dans du milieu complet. Le rapport macrophages/cellules cibles est de 10. On incube alors la culture durant 24 heures à 37°C. Puis on ajoute 1 - 2 x 10⁴Bq de thymidine tritiée par puits. Les cellules sont récupérées après 4 heures d'incubation à 37°C sur un filtre en fibre de verre. Après séchage des filtres, la radioactivité est mesurée en présence d'un mélange scintillant.
Les résultats correspondent à une moyenne de 3 mesures. Le pourcentage d'activation est exprimé : [formula] R : radioactivité incorporée par les cellules tumorales cultivées en présence de macrophages de référence. S : radioactivité incorporée par les cellules tumorales cultivées en présence de macrophages stimulés.

With CC(=O)N[C@H]1C(O)O[C@H](CO)[C@@H](O)[C@@H]1O[C@H](C)C(=O)N[C@@H](C)C(=O)N[C@H](CCC(=O)O)C(N)=O (mixture of isomers) [Muramyl dipeptide (MDP), Muramyl dipeptide] the “% d'activation des macrophages alvéolaires de rats Kyoto.” value (dose 0,01 µg/ml) was 28%, the “% d'activation des macrophages alvéolaires de rats Kyoto.” value (dose 1 µg/ml) was 90% and the “% d'activation des macrophages alvéolaires de rats Kyoto.” value (dose 10 µg/ml) was 92%.
